In patent publication US5571701A, “Antibiotic, balhimycin, a process for its production and its use as pharmaceutical” (priority 1990, dated 1996):
Counter-ions that a name gives are not always drawn.

Legend:
[1] = Solubility (physico-chemical properties); format: physicochemical; details: as its trifluoroacetate salt; solvents in which soluble
P. vulaaris = assay: Minimum inhibitory concentration (MIC), antibacterial activity; format: cell-based
Ps. aeruaingu = assay: as above; format: cell-based

SMILES: CNC(CC(C)C)C(=O)NC1C(=O)NC(CC(N)=O)C(=O)NC2C(=O)NC3C(=O)NC(C(=O)NC(C(=O)O)c4cc(O)cc(O)c4-c4cc3ccc4O)C(OC3C[C@](C)(N)C(=O)C(C)O3)c3ccc(c(Cl)c3)Oc3cc2cc(c3OC2O[C@H](CO)C(O)[C@H](O)C2O)Oc2ccc(cc2Cl)C1O (stereo partly drawn) [Balhimycin trifluoroacetate, Balhimycin]
- Solubility [1]: Water, dimethylsulfoxide
- MIC (P. vulaaris): > 100 µg/mL
- MIC (Ps. aeruaingu): > 100 µg/mL
